Reference: PubChem BioAssay (NCI)
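48-hour exposure; five concentrations; linearly interpolated endpoints. TGI is the concentration that stops growth completely.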

The compounds below were run on DLD-1 colon (assay: growth of human tumour cells (NCI), 48 h).

| Structure (SMILES) | TGI |
| --- | --- |
| O=C(OCc1ccccc1)C(Cc1ccccc1)N(Cc1ccccc1)Cc1ccccc1 (centres undefined) | > 100 µM |
| O=[N+]([O-])c1ccc(C2=Nc3ccccc3SC(c3ccccc3)C2)cc1 (centres undefined) | 48.3 µM |
| CCCCC#CS(=O)(=O)C(F)(F)F | > 100 µM |
| CC1(C)OC2CC(=O)OCC23C1CC(=O)C1(C)C3CCC2(C)C(c3ccoc3)OC(=O)C3OC321 (centres undefined) | > 125 µM |

The compounds below were run on HL-60(TB) leukemia (assay: growth of human tumour cells (NCI), 48 h).

| Structure (SMILES) | TGI |
| --- | --- |
| O=C(OCc1ccccc1)C(Cc1ccccc1)N(Cc1ccccc1)Cc1ccccc1 (centres undefined) | > 100 µM |
| O=[N+]([O-])c1ccc(C2=Nc3ccccc3SC(c3ccccc3)C2)cc1 (centres undefined) | 40 µM |
| CCCCC#CS(=O)(=O)C(F)(F)F | 62.9 µM |
| O=C(c1ccco1)C1CC(c2c(O)ccc3ccccc23)=NN1 (centres undefined) | 53.8 µM |
| CC1(C)OC2CC(=O)OCC23C1CC(=O)C1(C)C3CCC2(C)C(c3ccoc3)OC(=O)C3OC321 (centres undefined) | > 125 µM |

What follows are compounds tested on HOP-62 NSCLC (assay: growth of human tumour cells (NCI), 48 h).

| Structure (SMILES) | TGI |
| --- | --- |
| O=C(OCc1ccccc1)C(Cc1ccccc1)N(Cc1ccccc1)Cc1ccccc1 (centres undefined) | > 100 µM |
| O=[N+]([O-])c1ccc(C2=Nc3ccccc3SC(c3ccccc3)C2)cc1 (centres undefined) | 58.5 µM |
| CCCCC#CS(=O)(=O)C(F)(F)F | > 100 µM |
| O=C(c1ccco1)C1CC(c2c(O)ccc3ccccc23)=NN1 (centres undefined) | 27.3 µM |
| CC1(C)OC2CC(=O)OCC23C1CC(=O)C1(C)C3CCC2(C)C(c3ccoc3)OC(=O)C3OC321 (centres undefined) | > 125 µM |

Each compound was assayed on IGROV1 ovarian (assay: growth of human tumour cells (NCI), 48 h).

| Structure (SMILES) | TGI |
| --- | --- |
| O=C(OCc1ccccc1)C(Cc1ccccc1)N(Cc1ccccc1)Cc1ccccc1 (centres undefined) | > 100 µM |
| O=[N+]([O-])c1ccc(C2=Nc3ccccc3SC(c3ccccc3)C2)cc1 (centres undefined) | 33.3 µM |
| CCCCC#CS(=O)(=O)C(F)(F)F | > 100 µM |
| O=C(c1ccco1)C1CC(c2c(O)ccc3ccccc23)=NN1 (centres undefined) | 42 µM |
| CC1(C)OC2CC(=O)OCC23C1CC(=O)C1(C)C3CCC2(C)C(c3ccoc3)OC(=O)C3OC321 (centres undefined) | > 125 µM |

These compounds were tested on K-562 leukemia (assay: growth of human tumour cells (NCI), 48 h).

| Structure (SMILES) | TGI |
| --- | --- |
| O=C(OCc1ccccc1)C(Cc1ccccc1)N(Cc1ccccc1)Cc1ccccc1 (centres undefined) | > 100 µM |
| O=[N+]([O-])c1ccc(C2=Nc3ccccc3SC(c3ccccc3)C2)cc1 (centres undefined) | 67.6 µM |
| CCCCC#CS(=O)(=O)C(F)(F)F | > 100 µM |
| O=C(c1ccco1)C1CC(c2c(O)ccc3ccccc23)=NN1 (centres undefined) | > 100 µM |
| CC1(C)OC2CC(=O)OCC23C1CC(=O)C1(C)C3CCC2(C)C(c3ccoc3)OC(=O)C3OC321 (centres undefined) | > 70.3 µM |

What follows are compounds tested on KM12 colon (assay: growth of human tumour cells (NCI), 48 h).

| Structure (SMILES) | TGI |
| --- | --- |
| O=C(OCc1ccccc1)C(Cc1ccccc1)N(Cc1ccccc1)Cc1ccccc1 (centres undefined) | > 100 µM |
| O=[N+]([O-])c1ccc(C2=Nc3ccccc3SC(c3ccccc3)C2)cc1 (centres undefined) | 32.2 µM |
| CCCCC#CS(=O)(=O)C(F)(F)F | > 100 µM |
| O=C(c1ccco1)C1CC(c2c(O)ccc3ccccc23)=NN1 (centres undefined) | 24.3 µM |
| CC1(C)OC2CC(=O)OCC23C1CC(=O)C1(C)C3CCC2(C)C(c3ccoc3)OC(=O)C3OC321 (centres undefined) | > 125 µM |

Each compound was assayed on M14 melanoma (assay: growth of human tumour cells (NCI), 48 h).

| Structure (SMILES) | TGI |
| --- | --- |
| O=C(OCc1ccccc1)C(Cc1ccccc1)N(Cc1ccccc1)Cc1ccccc1 (centres undefined) | > 100 µM |
| O=[N+]([O-])c1ccc(C2=Nc3ccccc3SC(c3ccccc3)C2)cc1 (centres undefined) | 36.3 µM |
| O=C(c1ccco1)C1CC(c2c(O)ccc3ccccc23)=NN1 (centres undefined) | 26 µM |

The compounds below were run on MALME-3M melanoma (assay: growth of human tumour cells (NCI), 48 h).

| Structure (SMILES) | TGI |
| --- | --- |
| O=C(OCc1ccccc1)C(Cc1ccccc1)N(Cc1ccccc1)Cc1ccccc1 (centres undefined) | > 100 µM |
| CCCCC#CS(=O)(=O)C(F)(F)F | > 100 µM |
| O=C(c1ccco1)C1CC(c2c(O)ccc3ccccc23)=NN1 (centres undefined) | 37.9 µM |
| CC1(C)OC2CC(=O)OCC23C1CC(=O)C1(C)C3CCC2(C)C(c3ccoc3)OC(=O)C3OC321 (centres undefined) | > 125 µM |

What follows are compounds tested on MCF7 breast (assay: growth of human tumour cells (NCI), 48 h).

| Structure (SMILES) | TGI |
| --- | --- |
| CCCCC#CS(=O)(=O)C(F)(F)F | > 100 µM |
| O=C(c1ccco1)C1CC(c2c(O)ccc3ccccc23)=NN1 (centres undefined) | 22 µM |
| CC1(C)OC2CC(=O)OCC23C1CC(=O)C1(C)C3CCC2(C)C(c3ccoc3)OC(=O)C3OC321 (centres undefined) | > 70.3 µM |

What follows are compounds tested on NCI-H23 lung (assay: growth of human tumour cells (NCI), 48 h).

| Structure (SMILES) | TGI |
| --- | --- |
| O=C(OCc1ccccc1)C(Cc1ccccc1)N(Cc1ccccc1)Cc1ccccc1 (centres undefined) | > 100 µM |
| CCCCC#CS(=O)(=O)C(F)(F)F | > 100 µM |
| O=C(c1ccco1)C1CC(c2c(O)ccc3ccccc23)=NN1 (centres undefined) | 37.7 µM |
| CC1(C)OC2CC(=O)OCC23C1CC(=O)C1(C)C3CCC2(C)C(c3ccoc3)OC(=O)C3OC321 (centres undefined) | > 125 µM |

The compounds below were run on NCI-H522 lung (assay: growth of human tumour cells (NCI), 48 h).

| Structure (SMILES) | TGI |
| --- | --- |
| O=C(OCc1ccccc1)C(Cc1ccccc1)N(Cc1ccccc1)Cc1ccccc1 (centres undefined) | > 100 µM |
| O=[N+]([O-])c1ccc(C2=Nc3ccccc3SC(c3ccccc3)C2)cc1 (centres undefined) | 26.7 µM |
| CCCCC#CS(=O)(=O)C(F)(F)F | > 100 µM |
| O=C(c1ccco1)C1CC(c2c(O)ccc3ccccc23)=NN1 (centres undefined) | 22.5 µM |
| CC1(C)OC2CC(=O)OCC23C1CC(=O)C1(C)C3CCC2(C)C(c3ccoc3)OC(=O)C3OC321 (centres undefined) | > 125 µM |

These compounds were tested on RPMI-8226 leukemia (assay: growth of human tumour cells (NCI), 48 h).

| Structure (SMILES) | TGI |
| --- | --- |
| O=C(OCc1ccccc1)C(Cc1ccccc1)N(Cc1ccccc1)Cc1ccccc1 (centres undefined) | > 100 µM |
| O=[N+]([O-])c1ccc(C2=Nc3ccccc3SC(c3ccccc3)C2)cc1 (centres undefined) | 48.4 µM |
| CCCCC#CS(=O)(=O)C(F)(F)F | > 100 µM |
| O=C(c1ccco1)C1CC(c2c(O)ccc3ccccc23)=NN1 (centres undefined) | 86.6 µM |
| CC1(C)OC2CC(=O)OCC23C1CC(=O)C1(C)C3CCC2(C)C(c3ccoc3)OC(=O)C3OC321 (centres undefined) | > 125 µM |

What follows are compounds tested on RXF 393 renal (assay: growth of human tumour cells (NCI), 48 h).

| Structure (SMILES) | TGI |
| --- | --- |
| O=C(OCc1ccccc1)C(Cc1ccccc1)N(Cc1ccccc1)Cc1ccccc1 (centres undefined) | > 100 µM |
| O=[N+]([O-])c1ccc(C2=Nc3ccccc3SC(c3ccccc3)C2)cc1 (centres undefined) | 40 µM |
| CCCCC#CS(=O)(=O)C(F)(F)F | 78.1 µM |
| O=C(c1ccco1)C1CC(c2c(O)ccc3ccccc23)=NN1 (centres undefined) | 50 µM |
| CC1(C)OC2CC(=O)OCC23C1CC(=O)C1(C)C3CCC2(C)C(c3ccoc3)OC(=O)C3OC321 (centres undefined) | > 125 µM |

These compounds were tested on SK-MEL-2 melanoma (assay: growth of human tumour cells (NCI), 48 h).

| Structure (SMILES) | TGI |
| --- | --- |
| O=C(OCc1ccccc1)C(Cc1ccccc1)N(Cc1ccccc1)Cc1ccccc1 (centres undefined) | > 100 µM |
| O=[N+]([O-])c1ccc(C2=Nc3ccccc3SC(c3ccccc3)C2)cc1 (centres undefined) | 33.2 µM |
| CCCCC#CS(=O)(=O)C(F)(F)F | > 100 µM |
| O=C(c1ccco1)C1CC(c2c(O)ccc3ccccc23)=NN1 (centres undefined) | 39.2 µM |
| CC1(C)OC2CC(=O)OCC23C1CC(=O)C1(C)C3CCC2(C)C(c3ccoc3)OC(=O)C3OC321 (centres undefined) | > 125 µM |

These compounds were tested on SNB-78 CNS (assay: growth of human tumour cells (NCI), 48 h).

| Structure (SMILES) | TGI |
| --- | --- |
| O=C(OCc1ccccc1)C(Cc1ccccc1)N(Cc1ccccc1)Cc1ccccc1 (centres undefined) | > 100 µM |
| O=[N+]([O-])c1ccc(C2=Nc3ccccc3SC(c3ccccc3)C2)cc1 (centres undefined) | 70.9 µM |
| CCCCC#CS(=O)(=O)C(F)(F)F | > 100 µM |
| CC1(C)OC2CC(=O)OCC23C1CC(=O)C1(C)C3CCC2(C)C(c3ccoc3)OC(=O)C3OC321 (centres undefined) | > 125 µM |

Each compound was assayed on SR leukemia (assay: growth of human tumour cells (NCI), 48 h).

| Structure (SMILES) | TGI |
| --- | --- |
| O=C(OCc1ccccc1)C(Cc1ccccc1)N(Cc1ccccc1)Cc1ccccc1 (centres undefined) | > 100 µM |
| O=[N+]([O-])c1ccc(C2=Nc3ccccc3SC(c3ccccc3)C2)cc1 (centres undefined) | 45.2 µM |
| O=C(c1ccco1)C1CC(c2c(O)ccc3ccccc23)=NN1 (centres undefined) | 42.8 µM |

Each compound was assayed on SW-620 colon (assay: growth of human tumour cells (NCI), 48 h).

| Structure (SMILES) | TGI |
| --- | --- |
| O=C(OCc1ccccc1)C(Cc1ccccc1)N(Cc1ccccc1)Cc1ccccc1 (centres undefined) | > 100 µM |
| O=[N+]([O-])c1ccc(C2=Nc3ccccc3SC(c3ccccc3)C2)cc1 (centres undefined) | 27.8 µM |
| CCCCC#CS(=O)(=O)C(F)(F)F | > 100 µM |
| O=C(c1ccco1)C1CC(c2c(O)ccc3ccccc23)=NN1 (centres undefined) | 31 µM |
| CC1(C)OC2CC(=O)OCC23C1CC(=O)C1(C)C3CCC2(C)C(c3ccoc3)OC(=O)C3OC321 (centres undefined) | > 125 µM |

These compounds were tested on U251 CNS (assay: growth of human tumour cells (NCI), 48 h).

| Structure (SMILES) | TGI |
| --- | --- |
| O=C(OCc1ccccc1)C(Cc1ccccc1)N(Cc1ccccc1)Cc1ccccc1 (centres undefined) | > 100 µM |
| O=[N+]([O-])c1ccc(C2=Nc3ccccc3SC(c3ccccc3)C2)cc1 (centres undefined) | 26.3 µM |
| CCCCC#CS(=O)(=O)C(F)(F)F | > 100 µM |
| O=C(c1ccco1)C1CC(c2c(O)ccc3ccccc23)=NN1 (centres undefined) | 34.1 µM |
| CC1(C)OC2CC(=O)OCC23C1CC(=O)C1(C)C3CCC2(C)C(c3ccoc3)OC(=O)C3OC321 (centres undefined) | > 125 µM |

These compounds were tested on UACC-62 melanoma (assay: growth of human tumour cells (NCI), 48 h).

| Structure (SMILES) | TGI |
| --- | --- |
| O=C(OCc1ccccc1)C(Cc1ccccc1)N(Cc1ccccc1)Cc1ccccc1 (centres undefined) | > 100 µM |
| O=[N+]([O-])c1ccc(C2=Nc3ccccc3SC(c3ccccc3)C2)cc1 (centres undefined) | 27.3 µM |
| CCCCC#CS(=O)(=O)C(F)(F)F | 99.6 µM |
| O=C(c1ccco1)C1CC(c2c(O)ccc3ccccc23)=NN1 (centres undefined) | 26 µM |
| CC1(C)OC2CC(=O)OCC23C1CC(=O)C1(C)C3CCC2(C)C(c3ccoc3)OC(=O)C3OC321 (centres undefined) | > 125 µM |

The compounds below were run on XF 498 CNS (assay: growth of human tumour cells (NCI), 48 h).

| Structure (SMILES) | TGI |
| --- | --- |
| O=C(OCc1ccccc1)C(Cc1ccccc1)N(Cc1ccccc1)Cc1ccccc1 (centres undefined) | > 100 µM |
| O=[N+]([O-])c1ccc(C2=Nc3ccccc3SC(c3ccccc3)C2)cc1 (centres undefined) | 31.6 µM |
| CCCCC#CS(=O)(=O)C(F)(F)F | > 94.7 µM |
| CC1(C)OC2CC(=O)OCC23C1CC(=O)C1(C)C3CCC2(C)C(c3ccoc3)OC(=O)C3OC321 (centres undefined) | > 125 µM |
